Article PMC10539439 (Pharmacological Reports, 2023)
Several values for one entry are separate records, joined by “and”; a condition that tells them apart may be missing. Equal values may be shown once. Read-outs that look alike come from different tables or passages of the source.

Legend:
α1-adrenoceptor = test: Competitive radioligand-binding assay, [3H]prazosin; design: species or system rat
Method: 10 mM stock solutions of test compounds were prepared in DMSO. Serial dilutions of compounds were prepared in 96-well microplate in assay buffers using an automated pipetting system epMotion 5070 (Eppendorf, Poland). Each compound was tested in 6 concentrations of 1.0E-05 to 1.0E-10 M (final concentration).
Affinity towards α1- and α2-adrenoceptors was evaluated using the competitive radioligand-binding assay. Experiments were conducted in the rat cerebral cortex. Radioligand [3H]prazosin (84,2 Ci/mmol, α1-adrenoceptor, PerkinElmer, Poland, NET823001MC) and [3H]clonidine (70.5 Ci/mmol, α2-adrenoceptor, PerkinElmer, Poland, NET613250UC) were used. The membrane preparation and the assay procedure were carried out accordingly as previously published. Radioactivity was counted on the MicroBeta2 scintillation counter (PerkinElmer, Poland). Data were fitted to a one-site curve-fitting equation with Prism 8 (GraphPad Software, USA), and Ki values were estimated from the Cheng–Prusoff equation.

[1] = Blood pressure, 24-h telemetric method, normotensive rats; format: in vivo, rat; conditions: telemetry, 5 mg/kg b.w., first 15 or 15 and 30 min after 1st, 7th and 14th administration, vs control
Method: The blood pressure of rats treated with the tested compound was measured for a 24 h period after ip treatment (5 mg/kg b.w.) with a special telemetric system Stellar (TSE-Systems, Germany).
Surgery: The operation was carried out over 30 min under sterile conditions. Rats were anaesthetized with ketamine and xylasine (intramuscular injection: 100 mg/kg and 10 mg/kg). Before surgery and for 7 days after, the animals were also treated with cefuroxime (20 mg/kg/day) via intramuscular injection and ketoprofen (5 mg/kg/day) via ip injection. […] The transmitter was sutured to the peritoneal cavity.
The rats were individually caged for 2 weeks to heal after surgical cut. The animals were then placed in pairs in cages to reduce their isolation stress. Blood pressure was measured: before ip administration of the compounds – time 0 min and 24 h thereafter.

[2] = 5 mg/kg b.w., i.p.; cited from earlier work
[3] = [3H] prazosin, rat cerebral cortex, mean ± SEM, n = 3, read-out: Ki

Structure (SMILES)	Ki (α1-adrenoceptor; [3])	effect on systolic and diastolic blood pressure (in words) [1]	Ki (α1-adrenoceptor; ADRA1, experiment 1, 2, 3, read-out: Ki, single experiments)	Affinity towards α1-adrenoceptors (α1-adrenoceptor; summary table)	Body weight of obese animals [2]
Cl.N=C(N)NN=Cc1c(Cl)cc(O)cc1Cl [4-OH-Guanabenz, 2-[(2,6-Dichloro-4-hydroxyphenyl)methylene]hydrazinecarboximidamide Hydrochloride]	3860 ± 1010 nM	significantly higher	–	–	–
N=C(N)N/N=C/c1c(Cl)cccc1Cl [Guanabenz]	253 nM	–	259 nM and 250 nM and 251 nM	+	↓ [17]
